Converted amounts (≈) assume the structure as drawn. “Also recorded” adds a separate entry of the source. Read-outs that look alike come from different tables or passages of the source.

Broadly, the half-life is the time needed for the level to fall by half in the phase considered. Read a high half-life as slow loss. What is called solubility is how much of the substance goes into solution per volume. A high value points to a readily soluble substance.

Series [1] in a line: Metabolic stability (Cerep). The class given is in vitro ADME, human. Conditions: 10 µM, 5 time points. The procedure: (§1) To evaluate the relative binding specificity of LM22A-4 ([Massa et al., 2010]) and PTX-BD4-3, binding to a broad range of 55 pharmacologically relevant receptors, including numerous neurotransmitter and G-protein coupled receptors was assessed using standard radioligand competition binding assays (ExpressSProfile) performed by Cerep, Inc. (Seattle, WA, USA). In addition, ADME-Tox analysis was performed by Cerep, Inc. All experimental conditions are described on the Cerep website (www.cerep.fr).
(§2) Aqueous Human CYP inhibition (10µM) AMES hERG solubility hepatocyte DNA testing
(§3) (µM) metabolic mutagenesis
(§4) PTX‐BD4‐3 200 >60 negative negative negative
(§5) Table S2. Solubility, metabolism and toxicity screens for LM22A-4 […]
(§6) and PTX-BD4-3. […]
(§7) (also on this page, place not known: Disease Models & Mechanisms: doi:10.1242/dmm.044685: Supplementary information Disease Models & Mechanisms • Supplementary information)

The next series has as its system TrkB. Briefly: Shc adaptor protein recruitment to TrkB in HCEMs (IP/western blot). The note with it: 1 h, compounds 1000 nM, BDNF 0.7 nM. The class given is cell-based, human. The source says:
Fig. 2. […] Scale bar: 10 μm. […] Scale bar: 10 μm.
(Immunoblotting shows a protein as a band on a membrane.)

Series [2] deals with 4 different strains of Salmonella typhimurium. Kind of series: AMES DNA mutagenesis (Cerep). The format is cell-based. Conditions: 5, 10, 50 and 100 µM; 4 strains. Here is the method:
as §1, §2, §3, §4
(§8) Table S2. Solubility, metabolism and toxicity screens for LM22A-4 and PTX-BD4-3. Standardized assays of solubility, metabolic stability and in vitro toxicity were performed to further evaluate the potential of PTX-BD4-3 as a lead candidate molecule for the treatment of Rett syndrome, and to compare its profile to that of the parent compound LM22A-4. Aqueous solubility of both compounds, which is used as a surrogate measure of absorption, was at or near the assay maximum of 200 µM. The metabolic stability of both compounds at 10 µM was evaluated at 5 different time points in […] and found to be >60 min, indicating favorable stability. […]

A short description of series [3]: Brain:plasma partitioning (LC-MS/MS). The class given is in vivo, mouse. The note with it: mice; for concentration at 1 h / concentration at 3 h / Kp at 1 h / Kp at 3 h / plasma levels: 50 mg/kg i.p.; for Kp at 1 h / Kp at 3 h: brain/plasma, read-out: brain-to-plasma ratio; for concentration at 1 h / Kp at 1 h / plasma levels: 1 h; for plasma levels: in nM (unit assumed). Here is the method:
Brain and plasma concentrations of LM22A-4, PTX-BD4-3 and atenolol were determined by LC-MS/MS by Absorption Systems (Exton, PA, USA). Male C57BL/6 were dosed intraperitoneally one time with LM22A-4 or PTX-BD4-3 suspended in water at 50 mg/kg (10 ml/kg). Mice were sacrificed at 1 h or 3 h post dose (n=3-4 mice/time point), and brain and plasma samples were collected.
Figure S1. Brain and plasma levels, and brain to plasma ratios for […]
PTX-BD4-3 following IP administration in Wt mice. Brain and plasma levels were determined by LC-MS/MS and used to calculate the brain:plasma ratios at 1 and 3 hours after IP administration of 50 mg/kg LM22A-4 (black), or PTX- […]
in mice (n=11-12 mice/time point; data shown are mean + s.e.m.)
*p<0.05 compared to LM22A-4 at same time point; one-tailed Student’s t-test. […]

Series [4] can be described thus: Aqueous solubility (Cerep). Conditions: assay maximum 200 µM. The format is physicochemical. Here is the method: as §1, §2, §3, §4, §8
In the next series the test system is 8 different CYP enzymes. Briefly: CYP inhibition (Cerep). The format is in vitro ADME. Conditions: 10µM. Here is the method: as §1, §2, §3, §4, §5, §6
Both compounds were negative in 3 different assays of in vitro toxicity; inhibition of 8 different CYP enzymes at 10 µM, DNA mutagenesis in 4 different strains of Salmonella typhimurium at 5, 10, 50 and 100 µM and cardiac toxicity, measured by […] of hERG channels at 0.1, 1 and 10 µM, where >50% inhibition of the tail current indicates significant cardiac toxicity.
as §7

The next series deals with T1, hERG channels (Homo sapiens, UniProt Q12809).
T1 construct: Cerep, Inc. (contract screen)
Kind of series: hERG testing (Cerep). The class given is cell-based. The note with it: 0.1, 1 and 10 µM; >50% inhibition of the tail current = significant. Here is the method: as §1, §2, §3, §4, §8

Where [5] appears, read: male, C57BL/6, mouse, brain, ip, read-out: brain levels.
The mark [6] stands for this setting: male, C57BL/6, mouse, plasma, ip, read-out: plasma level.

T1 sequence (Q12809 whole entry): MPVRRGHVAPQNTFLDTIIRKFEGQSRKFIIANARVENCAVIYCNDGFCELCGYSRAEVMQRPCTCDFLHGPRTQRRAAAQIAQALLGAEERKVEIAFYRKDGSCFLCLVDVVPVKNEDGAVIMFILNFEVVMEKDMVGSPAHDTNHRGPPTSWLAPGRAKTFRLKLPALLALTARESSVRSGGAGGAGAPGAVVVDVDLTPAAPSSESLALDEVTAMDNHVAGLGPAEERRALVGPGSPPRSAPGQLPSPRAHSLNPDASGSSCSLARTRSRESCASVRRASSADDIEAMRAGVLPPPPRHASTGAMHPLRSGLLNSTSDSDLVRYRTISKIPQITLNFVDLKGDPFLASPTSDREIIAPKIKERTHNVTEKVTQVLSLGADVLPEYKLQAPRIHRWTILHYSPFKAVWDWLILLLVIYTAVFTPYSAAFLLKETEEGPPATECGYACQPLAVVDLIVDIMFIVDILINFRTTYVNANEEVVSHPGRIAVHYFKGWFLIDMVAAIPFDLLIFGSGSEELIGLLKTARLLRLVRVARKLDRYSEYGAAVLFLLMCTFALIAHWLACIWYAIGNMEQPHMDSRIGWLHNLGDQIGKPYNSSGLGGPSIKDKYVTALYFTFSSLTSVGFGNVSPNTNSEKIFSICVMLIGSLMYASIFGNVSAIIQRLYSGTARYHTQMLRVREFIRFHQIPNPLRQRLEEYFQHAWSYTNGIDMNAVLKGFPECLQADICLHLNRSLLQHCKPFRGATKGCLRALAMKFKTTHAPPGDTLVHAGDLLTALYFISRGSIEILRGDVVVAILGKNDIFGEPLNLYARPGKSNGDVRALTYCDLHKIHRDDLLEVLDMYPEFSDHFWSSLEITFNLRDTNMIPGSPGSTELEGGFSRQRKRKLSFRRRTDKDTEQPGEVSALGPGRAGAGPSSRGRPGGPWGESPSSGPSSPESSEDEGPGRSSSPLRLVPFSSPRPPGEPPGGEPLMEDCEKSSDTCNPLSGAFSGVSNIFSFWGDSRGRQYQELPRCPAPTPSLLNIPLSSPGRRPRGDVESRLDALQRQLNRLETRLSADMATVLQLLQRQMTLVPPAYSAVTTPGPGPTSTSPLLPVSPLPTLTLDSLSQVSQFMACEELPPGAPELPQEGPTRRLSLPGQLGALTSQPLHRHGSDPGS

With `COCCN(C)C(=O)c1cc(C(=O)N(C)CCOC)cc(C(=O)N(C)CCOC)c1` [PTX-BD4-3, benzene-1,3,5-tricarboxylic acid tris-[(2-methoxy-ethyl)-methyl-amide]], the “Human hepatocyte metabolic stability” value in series [1] was above 60 min. Besides, the “Shc recruitment to TrkB (ratio of Shc to TrkB)” value in the series with TrkB is on record as “promoted Shc recruitment to TrkB”. In addition, in series [2], the “AMES DNA mutagenesis” value is recorded as “negative; also recorded: no activity”. In series [3] (male, C57BL/6, mouse, brain and plasma, ip, 50 mg/kg, systemic (i.p.) administration), this compound came in with a half-life below 3 h. Further, in series [3] (setting [5]), the concentration at 1 h worked out at 0.227 µM and the concentration at 3 h was 0.0361 µM. Also, in series [3] (male, C57BL/6, mouse, ip), the Kp at 1 h was 0.0329 and the Kp at 3 h came out at 0.271. For the same compound, the concentration at 3 h in series [3] (setting [6]) worked out at 361 µM. The compound further came in with a plasma levels in series [3] of 10011.16. The amount in solution in series [4] (solubility) came to 200 µM (≈ 84.7 µg/mL). In addition, in the series on 8 different CYP enzymes, the CYP inhibition result is recorded as “negative”. Further, the “hERG testing (cardiac toxicity)” value at hERG channels is listed as “negative; also recorded: no activity”.
For `O=C(NCCO)c1cc(C(=O)NCCO)cc(C(=O)NCCO)c1` [LM22A-4, N,N′,N′′-tris(2-hydroxyethyl)-1,3,5-benzenetricarboxamide, reference compound], the “Human hepatocyte metabolic stability” value in series [1] is above 60 min. Further, the “Shc recruitment to TrkB (ratio of Shc to TrkB)” value in the series with TrkB was “promoted Shc recruitment to TrkB”. Further, the “AMES DNA mutagenesis” value in series [2] is listed as “negative”. In addition, in series [3] (setting [5]), the concentration at 1 h was found to be 0.2 µM and the concentration at 3 h turned out to be 0.0532 µM. Further, in series [3] (male, C57BL/6, mouse, ip), the Kp at 1 h was determined as 0.0268 and the Kp at 3 h was determined as 0.133. For the same compound, the concentration at 3 h in series [3] (setting [6]) came to 2350 µM. In series [3], this compound gave a plasma levels of 9193.46. In series [4], the concentration in solution (solubility) came to 180 µM (≈ 61.2 µg/mL). Besides, the CYP inhibition entry with 8 different CYP enzymes is recorded as “negative”. In addition, the “hERG testing (cardiac toxicity)” value at hERG channels is recorded as “negative”.

Source of the values: article PMC7710018, “Restoration of motor learning in a mouse model of Rett syndrome following long-term treatment with a novel small-molecule activator of TrkB” (Disease Models & Mechanisms, 2020).
